From PubChem BioAssay (NCI)
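Method: 48-hour compound exposure of cells in 96-well plates, five concentrations, linear interpolation of endpoints. GI50 is the concentration that inhibits growth by half. Definition used: TGI = concentration required for complete inhibition of growth.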

Assays:
Test in all cases: inhibition of tumour cell growth, NCI panel, 48 h
HOP-62 NSCLC = test system: HOP-62 NSCLC
SF-539 CNS = test system: SF-539 CNS
SK-MEL-28 melanoma = test system: SK-MEL-28 melanoma
T-47D breast = test system: T-47D breast
MALME-3M melanoma = test system: MALME-3M melanoma
CAKI-1 renal = test system: CAKI-1 renal
SK-MEL-5 melanoma = test system: SK-MEL-5 melanoma
HL-60(TB) leukemia = test system: HL-60(TB) leukemia
SK-MEL-2 melanoma = test system: SK-MEL-2 melanoma
NCI-H23 lung = test system: NCI-H23 lung

| SMILES | TGI (HOP-62 NSCLC) | TGI (SF-539 CNS) | TGI (SK-MEL-28 melanoma) | TGI (T-47D breast) | TGI (MALME-3M melanoma) | TGI (CAKI-1 renal) | TGI (SK-MEL-5 melanoma) | TGI (HL-60(TB) leukemia) | TGI (SK-MEL-2 melanoma) | TGI (NCI-H23 lung) | GI50 (T-47D breast) | GI50 (MALME-3M melanoma) | GI50 (CAKI-1 renal) | GI50 (SK-MEL-5 melanoma) | GI50 (HL-60(TB) leukemia) | GI50 (SK-MEL-2 melanoma) | GI50 (HOP-62 NSCLC) | GI50 (SF-539 CNS) | GI50 (SK-MEL-28 melanoma) | GI50 (NCI-H23 lung) |
| --- | --- | --- | --- | --- | --- | --- | --- | --- | --- | --- | --- | --- | --- | --- | --- | --- | --- | --- | --- | --- |
| COc1cc(S(=O)(=O)Nc2nc(-c3ccc(N4C(=O)/C(=C/c5ccccc5[N+](=O)[O-])N=C4c4ccccc4)cc3)cs2)ccc1Cl | > 100 µM | > 100 µM | > 100 µM | > 100 µM | > 100 µM | > 100 µM | > 100 µM | > 100 µM | > 100 µM | > 100 µM | – | – | – | – | – | – | – | – | – | – |
| Cl/C(=C\C=Nc1ccc(I)cc1)c1ccc2ccccc2c1 | 40.7 µM | 44.4 µM | 46.2 µM | 61.9 µM | 42 µM | 29 µM | 38.7 µM | 44.4 µM | 56.1 µM | 31 µM | – | – | – | – | – | – | – | – | – | – |
| COC(=O)Nc1nc2ccc(NC(=O)c3cccs3)cc2[nH]1 | > 100 µM | 60.2 µM | > 100 µM | 88.1 µM | 99.5 µM | > 100 µM | 82.5 µM | > 100 µM | > 100 µM | > 100 µM | – | – | – | – | – | – | – | – | – | – |
| CC(C)(C)OC(=O)NC1CCC(C(C)(C)C)CC1 (stereo not drawn) | > 100 µM | > 100 µM | > 100 µM | – | > 93.8 µM | – | > 72.4 µM | 36.1 µM | 71.3 µM | > 100 µM | – | – | – | – | – | – | – | – | – | – |
| C[C@]12CC[C@H](O)CC1=CC[C@@H]1[C@@H]2CC[C@]2(C)C(=N/O)/C(=C/c3ccc([N+](=O)[O-])cc3)C[C@@H]12 | 21.1 µM | 19.3 µM | 22.8 µM | 30.5 µM | 22.1 µM | 32.9 µM | 3.32 µM | 25 µM | 15.5 µM | 25.6 µM | – | – | – | – | – | – | – | – | – | – |
| CCCC(=O)O.CCCC(=O)O.CCCC(=O)O.CCCC(=O)O.[Rh].[Rh] | – | – | – | 0.0985 µM | 0.102 µM | 0.106 µM | 0.248 µM | 0.351 µM | 0.896 µM | – | 0.0312 µM | 0.0309 µM | 0.035 µM | 0.107 µM | 0.0448 µM | 0.285 µM | – | – | – | – |
| CC(=O)NNC(=O)C1CCCCN1 (stereo not drawn) | > 100 µM | > 100 µM | > 100 µM | – | > 100 µM | > 100 µM | > 100 µM | > 100 µM | > 100 µM | > 100 µM | – | – | – | – | – | – | – | – | – | – |
| C=CCSSCC=C | > 100 µM | > 71.9 µM | > 100 µM | > 100 µM | > 100 µM | > 100 µM | > 100 µM | 46 µM | > 100 µM | > 95.9 µM | – | – | – | – | – | – | – | – | – | – |
| C=C1C(=O)OC2CC1CCC1(C)OC1CCC(C)=CCCC2(C)O (stereo not drawn) | 19.4 µM | 10.5 µM | 10.7 µM | – | 12.2 µM | 7.7 µM | 10.2 µM | 2.62 µM | 14.2 µM | 7.25 µM | – | – | – | – | – | – | – | – | – | – |
| O=C1OCc2cc3cc4c(cc3c(-c3ccc5c(c3)OCO5)c21)OCO4 (tested in a mixture with another compound) | 34.9 µM | – | > 100 µM | > 100 µM | > 100 µM | 86.7 µM | 33.6 µM | > 100 µM | 68 µM | > 100 µM | – | – | – | – | – | – | – | – | – | – |
| CN1CC(CNC(=O)OCc2ccccc2)CC2c3cccc4c3c(cn4C)CC21 (stereo not drawn) | 2.98 µM | 3.24 µM | 3.03 µM | 4.67 µM | 3.14 µM | 3.65 µM | 2.86 µM | 3.85 µM | 3.45 µM | 10.6 µM | 2.26 µM | 1.57 µM | 1.68 µM | 1.49 µM | 1.91 µM | 1.88 µM | 1.52 µM | 1.64 µM | 1.62 µM | 2.61 µM |
| Br/C(=N\Nc1nn[nH]n1)c1ccncc1 | > 100 µM | > 100 µM | > 100 µM | > 100 µM | > 100 µM | > 100 µM | > 100 µM | > 100 µM | > 100 µM | > 100 µM | – | – | – | – | – | – | – | – | – | – |
| O=C(Nc1ccc(Cl)c(Cl)c1)N1N=C2c3ccccc3CCC2C1c1ccc(Cl)cc1 (stereo not drawn) | > 100 µM | > 100 µM | > 100 µM | > 100 µM | > 100 µM | > 100 µM | > 100 µM | > 100 µM | > 100 µM | > 100 µM | – | – | – | – | – | – | – | – | – | – |
| O=C(COc1ccc(Cl)c(Cl)c1)N(Cc1ccccc1)Cc1ccc[n+](Cc2ccc(Cl)cc2S(=O)(=O)F)c1 | > 100 µM | > 100 µM | > 100 µM | > 100 µM | 54.2 µM | > 100 µM | 64.7 µM | 94.5 µM | 70.1 µM | > 100 µM | – | – | – | – | – | – | – | – | – | – |
| O=C(Oc1ccc(Cl)cc1[N+](=O)[O-])c1ccccc1 | > 100 µM | > 100 µM | > 100 µM | – | > 100 µM | – | 36.7 µM | > 100 µM | > 100 µM | > 100 µM | – | – | – | – | – | – | – | – | – | – |
| O=C1CCCC2C3CC(CN12)C1CCCCN1C3 (stereo not drawn) | > 100 µM | > 100 µM | > 100 µM | > 100 µM | > 100 µM | > 100 µM | > 100 µM | > 100 µM | > 100 µM | > 100 µM | – | – | – | – | – | – | – | – | – | – |
| Cc1cc(C)nc(SCCc2cccc[n+]2C)n1 | > 100 µM | – | > 100 µM | > 100 µM | > 100 µM | > 100 µM | > 100 µM | > 100 µM | – | > 100 µM | – | – | – | – | – | – | – | – | – | – |
| O=C1C(Cl)C(c2cc3cc(Br)ccc3nc2Cl)N1c1ccc(Cl)cc1 (stereo not drawn) | > 25 µM | 9.41 µM | > 25 µM | 23.8 µM | 8.91 µM | 9.3 µM | 6.38 µM | 15.5 µM | 10.4 µM | 17.2 µM | – | – | – | – | – | – | – | – | – | – |
| COc1c(OC/C=C(\C)CCC=C(C)C)ccc2ccc(=O)oc12 | > 100 µM | > 100 µM | > 100 µM | > 100 µM | – | > 100 µM | > 100 µM | > 100 µM | > 100 µM | > 100 µM | – | – | – | – | – | – | – | – | – | – |
| CC(C)(C)c1ccc(/C=N/NC(=O)CSCC(=O)N/N=C/c2ccc(C(C)(C)C)cc2)cc1 | 5.84 µM | – | 20.6 µM | 26.3 µM | 24.8 µM | – | 4.3 µM | 5.21 µM | 5.72 µM | 6.01 µM | – | – | – | – | – | – | – | – | – | – |
| CC[C@]12C=CCN3CC[C@@]4(c5cc(Br)c(OC)cc5N(C)[C@H]4[C@@](O)(C(=O)N[C@@H](Cc4ccc(O)cc4)C(=O)OC)[C@@H]1O)[C@@H]32 | > 100 µM | 36.6 µM | > 100 µM | > 100 µM | 29.1 µM | 77.9 µM | 31.4 µM | 57.8 µM | 60.1 µM | > 100 µM | – | – | – | – | – | – | – | – | – | – |
| COc1ccc(OC)c(CC(C)N)c1 (stereo not drawn) | > 100 µM | > 100 µM | > 100 µM | – | > 100 µM | > 100 µM | > 100 µM | – | > 100 µM | > 100 µM | – | – | – | – | – | – | – | – | – | – |
